According to PubChem BioAssay (NCI):
“And” between values parts separate entries of the source, which are not always exact repeats. Equal values may be shown once.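 Protocol summary: plate cells (96-well), add compound at 5 concentrations, incubate 48 h, interpolate endpoints linearly. GI50 is the concentration that inhibits growth by half. TGI: total growth inhibition.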

How the values were obtained:
Experiment in all cases: growth of human tumour cells (NCI), 48 h
HS 578T breast = system: HS 578T breast
MCF7 breast = system: MCF7 breast
HOP-92 NSCLC = system: HOP-92 NSCLC
MALME-3M melanoma = system: MALME-3M melanoma
MOLT-4 leukemia = system: MOLT-4 leukemia
OVCAR-3 ovarian = system: OVCAR-3 ovarian
NCI-H460 lung = system: NCI-H460 lung
TK-10 renal = system: TK-10 renal
HOP-62 NSCLC = system: HOP-62 NSCLC
COLO 205 colon = system: COLO 205 colon

SMILES | GI50 (HS 578T breast) | TGI (HS 578T breast) | GI50 (MCF7 breast) | TGI (MCF7 breast) | GI50 (HOP-92 NSCLC) | TGI (HOP-92 NSCLC) | GI50 (MALME-3M melanoma) | TGI (MALME-3M melanoma) | GI50 (MOLT-4 leukemia) | TGI (MOLT-4 leukemia) | GI50 (OVCAR-3 ovarian) | TGI (OVCAR-3 ovarian) | GI50 (NCI-H460 lung) | TGI (NCI-H460 lung) | GI50 (TK-10 renal) | TGI (TK-10 renal) | GI50 (HOP-62 NSCLC) | TGI (HOP-62 NSCLC) | GI50 (COLO 205 colon) | TGI (COLO 205 colon)
CN(C)c1ccc2cc3c(cc2c1)Oc1ccccc1N3.[Cl][Zn][Cl] | 24.7 µM | > 100 µM | 1.53 µM | 3.91 µM | 2.59 µM | 8.33 µM | 3.04 µM | 9.6 µM | 3.1 µM | 16.2 µM | 1.5 µM | 3 µM | 20.1 µM | 52.2 µM | 6.2 µM | 16.5 µM |  |  |  | 
CC[C@H](C)[C@H](NC(=O)[C@H]1CCCCN1C)C(=O)N(C)[C@H](C[C@@H](OC(C)=O)c1nc(C(=O)NC23C4C5C2C2C3C4C52C(=O)OC)cs1)C(C)C (some centres undefined) | 0.000754 µM and 0.0025 µM | > 25 µM | 0.000557 µM and 0.0025 µM | > 25 µM | 5.44 µM | > 25 µM | 0.00288 µM and 0.0025 µM | > 25 µM | 0.00485 µM and 0.0025 µM | > 25 µM | 0.000489 µM and < 0.0025 µM |  | 0.003 µM and 0.0025 µM | > 25 µM | 0.00424 µM |  | 0.00265 µM and 0.0025 µM | > 25 µM | 0.00303 µM and 0.0025 µM | 0.0715 µM and 0.0111 µM
CCCCCCCCCCCCSC1=CC(=O)C=CC1=O | 1.96 µM | 21.8 µM | 2.22 µM | > 50 µM | 2.56 µM | 12.6 µM | 13.1 µM | > 50 µM | 0.218 µM | 8.97 µM | 1.98 µM | 7.91 µM | 13.9 µM | > 50 µM | 16.3 µM | 37.4 µM | 9.23 µM | > 35 µM | 20.9 µM | > 36.2 µM
O=C(C(=O)c1cccnc1)c1cccnc1 | > 100 µM | > 100 µM | > 100 µM | > 100 µM | > 100 µM | > 100 µM | > 100 µM | > 100 µM | > 100 µM | > 100 µM | > 100 µM | > 100 µM | > 100 µM | > 100 µM | > 100 µM | > 100 µM | > 100 µM | > 100 µM | > 100 µM | > 100 µM
O=c1[nH][nH]c(=O)c2c(O)c(-c3ccccc3)ncc12 | 40.3 µM and 40.2 µM | 672 µM | 47 µM and 199 µM | > 1000 µM | 30.4 µM and 50.1 µM | 91.2 µM and 277 µM | 30.1 µM and 54.4 µM | 278 µM | 35 µM and 173 µM | > 1000 µM | 27.6 µM and 84 µM | 84.2 µM and 468 µM | 55.6 µM and 146 µM | 634 µM | 57 µM and 153 µM | 462 µM | 27.9 µM and 86.9 µM | 87.3 µM and 471 µM | 41.6 µM and 130 µM | 399 µM
CCN(CC)CCOc1ccc(NC(=O)C(C(C)C)N2C(=O)/C(=C/c3ccc(Br)cc3)SC2=S)cc1 (centres undefined) | 12.1 µM | 35.1 µM | 1.99 µM | 4.34 µM | 2.53 µM | 13.5 µM | 1.71 µM | 3.3 µM | 2.68 µM | 9.38 µM | 1.95 µM | 4.08 µM | 1.85 µM | 3.51 µM | 2.17 µM | 5.09 µM | 2.36 µM | 7.11 µM | 2.64 µM | 6.88 µM
O=[N+]([O-])c1cc(C(F)(F)F)cc2n[se]nc12 |  | 75.6 µM |  | 4.07 µM |  | 5.1 µM |  | 3.57 µM |  | > 45.2 µM |  | 3.33 µM |  | 26.6 µM |  | 8.47 µM |  | 29.8 µM |  | 4.21 µM
